Experimental data taken from US9440933B2, “Azole derivative, method for producing same, intermediate compound, and agricultural or horticultural chemical agent and industrial material protecting agent” (KUREHA CORPORATION, priority 2011, dated 2016).

Key:
[1] = system: Sclerotinia rot-causing microbe (Sclerotinia sclerotiorum); assay: Antimicrobial activity to various pathogenic microbes: S.s; conditions: 50 mg/L
Experimental: (§1) An inventive compound was dissolved in dimethylsulfoxide 2 ml. The solution 0.6 ml was added to a PDA medium (potato-dextrose-agar medium) 60 ml at around 60° C.
(§2) A flat plate containing a test microbe (wheat leaf blight-causing microbe) cultured separately was punched into pieces with a cork borer having a diameter of 4 mm and the circular plate obtained was placed on the flat plate media containing the chemical described above. The plates were cultured at 25° C. for 14 days after inoculation and the diameter of the microbial colony was determined. Hyphal expansion-inhibiting rate was calculated according to the following equation: R=100(dc−dt)/dc (wherein, R: hyphal expansion-inhibiting rate (%), dc: diameter of microbial colony on non-treated flat plate, dt: diameter of microbial colony on chemically-treated flat plate).
(§3) The results thus obtained were evaluated in 5 stages according to the criteria below:
Sclerotinia rot-causing microbe (Sclerotinia sclerotiorum) S.s

[2] = system: wheat powdery mildew-causing microbes; assay: Controlling activity to wheat powdery mildew of seed treatment (pot test); format: in vivo, Erysiphe graminis f. sp tritici; conditions: 2 mg in DMSO applied to wheat seeds 1 g, 14 to 28 days after seeding
Experimental: Controlling activity to wheat powdery mildew was examined in a pot test. Each of the inventive compounds […]-53, and a comparative compound (1) was weighed in an amount of 2 mg and dissolved in DMSO (18 μl). The solution thus prepared was applied to wheat seeds 1 g in a vial, 8 wheat seeds were seeded in a 80 cm^2 pot. The wheat was grown, as water was supplied from blow, in a greenhouse where wheat powdery mildew-causing microbes are present abundantly. The incidence rate was determined and the controlling rate and additionally the controlling index calculated 14 to 28 days after seeding. The controlling rate was calculated and the wheat powdery mildew controlling index determined according to the following equation: Controlling rate=(1-Incidence rate in treated region/Incidence rate in non-treated region)×100(%) [table]

[3] = system: Barley scald-causing microbe (Rhynchosporium secalis); assay: Antimicrobial activity to various pathogenic microbes: R.sec; conditions: 50 mg/L
Experimental: as §1, §2
(§4) In this Test Example, the antimicrobial activity of the inventive compounds to various plant disease-causing fungi and industrial material-eroding microorganisms was studied by the method described in Example 1.
as §3
Barley scald-causing microbe (Rhynchosporium secalis) R.sec

[4] = system: Wheat fusarium blight-causing microbe (Fusarium graminearum); format: cell-based; conditions: 50 mg/L
[5] = system: Barley loose smut-causing microbe (Ustilago nuda); assay: Antimicrobial activity to various pathogenic microbes: U.n; conditions: 50 mg/L
Experimental: as §1
(§5) The plates were cultured at 25° C. for 14 days after inoculation and the diameter of the microbial colony was determined. Hyphal expansion-inhibiting rate was calculated according to the following equation: R=100(dc−dt)/dc (wherein, R: hyphal expansion-inhibiting rate (%), dc: diameter of microbial colony on non-treated flat plate, dt: diameter of microbial colony on chemically-treated flat plate).
as §3
Barley loose smut-causing microbe (Ustilago nuda) U.n

[6] = system: Wheat eye spot-causing microbe (Pseudocercoporella herpotrichoides); assay: Antimicrobial activity to various pathogenic microbes: P.h; conditions: 50 mg/L
Experimental: as §1, §5, §3
Wheat eye spot-causing microbe (Pseudocercoporella herpotrichoides) P.h

[7] = system: Gray mold-causing microbe (Botrytis cinerea); assay: Antimicrobial activity to various pathogenic microbes: B.c; conditions: 50 mg/L
Experimental: as §1, §2, §4, §3
Gray mold-causing microbe (Botrytis cinerea) B.c

[8] = system: wheat leaf rust-causing microbe; assay: Wheat leaf rust-controlling activity (foliar spray, pot test); format: in vivo, Puccinia recondita; conditions: Concentration 25 g/ha; wettable powder sprayed on wheat (Norin No. 61), 9 to 14 days after inoculation
[9] = system: Cucumber Fusarium wilt-causing microbe (Fusarium oxysporum); assay: Antimicrobial activity to various pathogenic microbes: F.c; conditions: 50 mg/L
Experimental: as §1, §2, §3

[10] = system: Rice blast-causing microbe (Pyricularia oryzae); format: cell-based; conditions: 50 mg/L
[11] = system: wheat leaf blight-causing microbe; assay: Antimicrobial activity to wheat leaf blight-causing microbe (PDA plate, hyphal expansion inhibition); format: cell-based, Septoria tritici; conditions: PDA medium, 25° C., 14 days; for inhibition at 50 µg/mL: read-out: Growth inhibition
Experimental: In this Test Example, antimicrobial activity of the inventive compounds to wheat leaf blight-causing microbe was determined and compared with that of the comparative compound (1).

[12] = system: Rice bakanae disease-causing microbe (Gibberella fujikuroi); assay: Antimicrobial activity to various pathogenic microbes: G.f; conditions: 50 mg/L
[13] = system: Wheat glume blotch-causing microbe (Phaeosphaeria nodorum); assay: Antimicrobial activity to various pathogenic microbes: P.n; conditions: 50 mg/L
Experimental: as §1, §2, §4, §3
Wheat glume blotch-causing microbe (Phaeosphaeria nodorum) P.n

wheat = assay: Damage to wheat (growth inhibition) by seed treatment (pot test); conditions: 2 mg in DMSO applied to wheat seeds 1 g, 14 to 28 days after seeding, larger index = smaller damage
[14] = system: Apple alternaria blotch-causing microbe (Alternaria alternata); assay: Antimicrobial activity to various pathogenic microbes: A.m; conditions: 50 mg/L
Experimental: as §1, §2, §4, §3
Apple alternaria blotch-causing microbe (Alternaria alternata) A.m

SMILES	Growth inhibition (hyphal expansion-inhibiting rate grade) S.s [1]	Controlling index Wheat powdery mildew [2]	Growth inhibition (hyphal expansion-inhibiting rate grade) R.sec [3]	Growth inhibition (hyphal expansion-inhibiting rate grade) F.g [4]	Growth inhibition (hyphal expansion-inhibiting rate grade) U.n [5]	Growth inhibition (hyphal expansion-inhibiting rate grade) P.h [6]	Growth inhibition (hyphal expansion-inhibiting rate grade) B.c [7]	Controlling index [8]	Growth inhibition (hyphal expansion-inhibiting rate grade) F.c [9]	Growth inhibition (hyphal expansion-inhibiting rate grade) P.o [10]	inhibition at 50 µg/mL ([11]; 336 h, Concentration 50 mg/L)	Growth inhibition (hyphal expansion-inhibiting rate grade) G.f [12]	Growth inhibition (hyphal expansion-inhibiting rate grade) P.n [13]	Damage index Growth inhibition (wheat)	Growth inhibition (hyphal expansion-inhibiting rate grade) A.m [14]	inhibition at 1.25 µg/mL ([11]; 336 h, test sample concentration 1.25 mg/L, read-out: hyphal expansion-inhibiting rate)	Growth inhibition ([11]; Concentration 50 mg/L)
CCOC(=O)[C@]1(C)CC[C@H](Cc2ccc(Cl)cc2)[C@@]1(O)Cn1cncn1 (racemic) [Compound I-133, ethyl-(1RS,2SR,3RS)-3-(4-chlorobenzyl)-2-hydroxy-1-methyl-2-(1H-1,2,4-triazol-1-ylmethyl)cyclopentanecarboxylate]	5 (hyphal expansion-inhibiting rate: 80% or more)	5 (Controlling rate: 40 or more)	5 (hyphal expansion-inhibiting rate: 80% or more)	5 (hyphal expansion-inhibiting rate: 80% or more)	5 (hyphal expansion-inhibiting rate: 80% or more)	5 (hyphal expansion-inhibiting rate: 80% or more)	5 (hyphal expansion-inhibiting rate: 80% or more)	5 (81 to 100)	5 (hyphal expansion-inhibiting rate: 80% or more)	5 (hyphal expansion-inhibiting rate: 80% or more)	> 80%	5 (hyphal expansion-inhibiting rate: 80% or more)	5 (hyphal expansion-inhibiting rate: 80% or more)	4 (1% or more and less than 20%)	5 (hyphal expansion-inhibiting rate: 80% or more)	–	–
CCCOC(=O)[C@]1(C)CC[C@@H](Cc2ccc(Cl)cc2)[C@]1(O)Cn1cncn1 (racemic) [Compound I-6, n-propyl-(1RS,2RS,3SR)-3-(4-chlorobenzyl)-2-hydroxy-1-methyl-2-(1H-1,2,4-triazol-1-ylmethyl)cyclopentanecarboxylate]	5 (hyphal expansion-inhibiting rate: 80% or more)	5 (Controlling rate: 40 or more)	5 (hyphal expansion-inhibiting rate: 80% or more)	5 (hyphal expansion-inhibiting rate: 80% or more)	5 (hyphal expansion-inhibiting rate: 80% or more)	5 (hyphal expansion-inhibiting rate: 80% or more)	5 (hyphal expansion-inhibiting rate: 80% or more)	5 (81 to 100)	5 (hyphal expansion-inhibiting rate: 80% or more)	5 (hyphal expansion-inhibiting rate: 80% or more)	> 80%	5 (hyphal expansion-inhibiting rate: 80% or more)	5 (hyphal expansion-inhibiting rate: 80% or more)	3 (20% or more and less than 40%)	5 (hyphal expansion-inhibiting rate: 80% or more)	≥ 80%	–
C#CCOC(=O)[C@]1(C)CC[C@@H](Cc2ccc(Cl)cc2)[C@]1(O)Cn1cncn1 (racemic) [Compound I-5, 2-propynyl-(1RS,2RS,3SR)-3-(4-chlorobenzyl)-2-hydroxy-1-methyl-2-(1H-1,2,4-triazol-1-ylmethyl)cyclopentanecarboxylate]	5 (hyphal expansion-inhibiting rate: 80% or more)	5 (Controlling rate: 40 or more)	5 (hyphal expansion-inhibiting rate: 80% or more)	5 (hyphal expansion-inhibiting rate: 80% or more)	5 (hyphal expansion-inhibiting rate: 80% or more)	5 (hyphal expansion-inhibiting rate: 80% or more)	5 (hyphal expansion-inhibiting rate: 80% or more)	5 (81 to 100)	5 (hyphal expansion-inhibiting rate: 80% or more)	5 (hyphal expansion-inhibiting rate: 80% or more)	–	5 (hyphal expansion-inhibiting rate: 80% or more)	5 (hyphal expansion-inhibiting rate: 80% or more)	1 (60% or more and less than 80%)	5 (hyphal expansion-inhibiting rate: 80% or more)	–	5 (hyphal expansion-inhibiting rate: 80% or more)
COC(=O)[C@]1(C)CC[C@H](Cc2ccc(Cl)cc2)[C@@]1(O)Cn1cncn1 (racemic) [Compound I-132, methyl-(1RS,2SR,3RS)-3-(4-chlorobenzyl)-2-hydroxy-1-methyl-2-(1H-1,2,4-triazol-1-ylmethyl)cyclopentanecarboxylate]	5 (hyphal expansion-inhibiting rate: 80% or more)	5 (Controlling rate: 40 or more)	5 (hyphal expansion-inhibiting rate: 80% or more)	5 (hyphal expansion-inhibiting rate: 80% or more)	5 (hyphal expansion-inhibiting rate: 80% or more)	5 (hyphal expansion-inhibiting rate: 80% or more)	5 (hyphal expansion-inhibiting rate: 80% or more)	5 (81 to 100)	5 (hyphal expansion-inhibiting rate: 80% or more)	5 (hyphal expansion-inhibiting rate: 80% or more)	> 80%	5 (hyphal expansion-inhibiting rate: 80% or more)	5 (hyphal expansion-inhibiting rate: 80% or more)	5	5 (hyphal expansion-inhibiting rate: 80% or more)	–	–
